In patent publication US20070269406A1, “Transcatheter tumor immunoembolization” (priority 2005, published 2007):

Assays:
[1] = test system: IL-4; test: KLH recall response supernatants, IL-4 ELISA; assay type: in vivo, C57BL/6 mice; details: 14 days after immunization with siRNA/lipiodol, CFA and KLH, supernatants by ELISA, FIG. 14, FIG. 17
Procedure: (§1) C57/BL6 mice were immunized intradermally at the interior side of both hind legs with 100 μl of KLH or ovalbumin (1 μg/μl) emulsified in CFA (Difco Laboratories, Detroit, Mich.) in the presence or absence of 10 nMol siRNA and 10% lipiodol. After 14 days mice were sacrificed and T cells extracted as described above.
(§2) Proliferative recall responses to KLH and ovalbumin in immunized mice were assessed by sacrificing C57/BL6 mice 14 days after immunization with antigen-loaded DC. T cells were purified from suspensions of lymph nodes using CD4+ T cell column (R&D Systems) after washing in PBS. Purified T cells were cultured in 96 well plates with irradiated syngeneic splenocytes in triplicate and mixed with serial dilutions of KLH or OVA at concentrations ranging from 0-10 ug/ml. […] Using an automated cell harvester, the cells were collected onto glass microfiber filter, and the radioactive labeling incorporation was measured by a Wallac Betaplate liquid scintillation counter.
(§3) The supernatants from recall response T cell cultures or MLR were harvested and assessed for DC cytokines (IL-12p70, IL-10) and T cell cytokines (IFN-, IL-4) by ELISA. Cytokine-specific ELISA (Endogen, Rockford, Ill.) was used for detecting cytokine concentrations in culture supernatants according to the manufacturer's instructions using a Benchmark Microplate Reader (Bio-Rad, Hercules, Calif.). […]

[2] = test system: CD4 T cells from draining lymph nodes; test: KLH proliferative recall response after immunization with siRNA/lipiodol, CFA and KLH; assay type: in vivo, C57BL/6 mice; details: lipiodol/CFA composition with KLH, identical protocol to Example 10; FIG. 15
Procedure: as §1
Proliferative recall responses to KLH and ovalbumin in immunized mice were assessed by sacrificing C57/BL6 mice 14 days after immunization with antigen-loaded DC. T cells were purified from suspensions of lymph nodes using CD4+ T cell column (R&D Systems) after washing in PBS. Purified T cells were cultured in 96 well plates with irradiated syngeneic splenocytes in triplicate and mixed with serial dilutions of KLH or OVA at concentrations ranging from 0-10 ug/ml. Following a 72-h incubation, 1 μCi of [^3H]thymidine (Amersham) was added to each well for 16 h. Using an automated cell harvester, the cells were collected onto glass microfiber filter, and the radioactive labeling incorporation was measured by a Wallac Betaplate liquid scintillation counter.
Accordingly, we used the KLH recall response as an indicator. C57BL/6 mice were immunized with the IL-12 siRNA/lipiodol mixture combined with CFA and KLH. […]

[3] = test system: IFN-γ; test: KLH recall response supernatants, IFN-γ ELISA; assay type: in vivo, C57BL/6 mice; details: 14 days after immunization with siRNA/lipiodol, CFA and KLH, supernatants by ELISA, FIG. 13, FIG. 16
Procedure: as §1, §2, §3

[4] = test system: IL-12 p70; test: IL-12 p70 production by LPS/TNF-activated bone marrow derived DC after siRNA transfection (ELISA); assay type: cell-based, C57/BL6 mice; details: day-7 bone marrow derived C57/BL6 DC; LPS/TNF activation day 8; supernatants day 10; FIG. 7
Procedure: At Day 0, bone marrow cells were flushed from the femurs and tibias of C57/BL6 mice, washed and cultured in 6-well plates (Corning, N.Y.) at 4×10^6 cells/well in 4 ml of complete medium (RPMI 1640 supplemented with 2 mM L-glutamine, 100 U/ml penicillin, 100 μg of streptomycin, 50 μM 2-ME, and 10% FCS (all from Life Technologies, Ontario, Canada) supplemented with recombinant GM-CSF (10 ng/ml; PeproTech, Rocky Hill, N.J.) and recombinant mouse IL-4 (10 ng/ml; PeproTech). All cultures were incubated at 37° C. in 5% humidified CO2. Non-adherent cells were removed after 48 h of culture (Day 2) and fresh medium was added. After 7 days of culture, >90% of the cells expressed the characteristic DC-specific marker CD11c as determined by FACS. DC were washed and plated in 24-well plates at a concentration of 2×10^5 cells/well in 400 μl of serum-free RPMI 1640. Transfection with GenePorter, lipiodol, or naked siRNA was performed as described below on day 7 of culture. […]
as §3

[5] = test system: BALB/c T cells responding to C57/BL6 DC; test: Mixed lymphocyte reaction, proliferation of responding allogeneic T cells; assay type: cell-based, mice; details: 3 day MLR; lipiodol-transfected C57/BL6 DC with naive BALB/c splenocytes; FIG. 9
Procedure: C57/BL6 DC after transfection were irradiated (3,000 rad) and seeded in triplicate at various concentrations in a flat-bottom 96-well plate (Coming) for use as stimulator cells. Splenic T cells from BALB/c mice were isolated by gradient centrifugation over Ficoll-Paque (Amersham Pharmacia Biotech, Quebec) and T cell nylon wool column purification, and added as responders (5×10^5 cells/well). The mixed lymphocytes were cultured at 37° C. for 72 h in 200 μl of RPMI 1640 supplemented with 10% FCS, 100 U/ml of penicillin, and 100 μg/ml of streptomycin and pulsed with 1 μCi/well of ^3H-labelled thymidine (Amersham Pharmacia Biotech) for the last 16 h of culture. Cells were harvested onto glass fiber filters, and the radioactivity incorporated was quatitated using a Wallac Betaplate liquid scintillation counter (Beckman, Fullerton, Calif.). Results were expressed as the mean counts per min of triplicate cultures±SEM. In some experiments anti-IL-10 (JES5 2A5, Pharmingen) or isotype control antibody were added for the duration of the MLR at a concentration of 5 ug/ml.
Since the specific function of DC in vivo is stimulation of T cell responses, we sought to determine whether the siRNA/lipiodol mixture had effects on inhibition of mixed lymphocyte reaction (MLR).

[6] = test system: splenic lymphocytes; test: Ovalbumin-specific proliferative recall response of splenic lymphocytes after intrahepatic immunization; assay type: in vivo, BALB/c mice; details: intrahepatic (portal vein) ovalbumin immunization; boosted day 7 with ovalbumin/CFA; splenic lymphocytes 14 days after boost; FIG. 1
Description: Four groups of BALB/c mice (The Jackson Laboratory, Bar Harbor, ME) of 6-8 weeks of age consisted of Group 1 intraperitoneal administration of ovalbumin, Group 2 intrahepatic administration of ovalbumin, Group 3 intrahepatic administration of ovalbumin together with lipiodol, and Group 4 intrahepatic administration of ovalbumin together with lipiodol and Poly (I:C).
Mice in Group 1(5 mice per group) where administered one hundred micrograms of ovalbumin (grade V; Sigma Aldrich) dissolved in 0.1 mL of 0.9% saline solution intraperitoneally. The following procedures were performed for mice receiving intrahepatic immunization: Mice were anesthetized with an intraperitoneal injection of ketamin at a concentration of 0.075 mg/g and medetomidine 0.005 mg/g (Sigma Aldrich, St Louis, Mo.). A midline abdominal incision was made, and the viscera were exposed. One hundred micrograms of ovalbumin was dissolved in 0.1 mL of 0.9% saline solution was injected into the portal vein with a 30-gauge needle for mice in Group 2. Mice in Group 3 received one hundred micrograms of ovalbumin dissolved in 0.1 mL of lipiodol (Guerbet, Roissy CdG Cedex, France). […] Cells were harvested onto glass fiber filters, and the radioactivity incorporated was quantitated using a Wallac Betaplate liquid scintillation counter. Results were expressed as the mean cpm of triplicate cultures±SEM. […]

[7] = listed as Lipiodol-siRNA targeting IL-10

## siRNA targeting IL-10: siRNA specific for IL-10 (AATAAGCTCCAAGAGAAAGGC) (SEQ ID NO: 2), delivered in vivo in a lipiodol/CFA composition (lipiodol/CFA formulation, further chemistry not given here)
[1]
  IL-4 production in KLH recall response: reduced
[1]; [7]
  IL-4 production in KLH recall response: Decreased
[2]
  recall proliferative response to KLH: increased
[3]
  IFN-γ production in KLH recall response: enhanced
[3]; [7]
  IFN-γ production in KLH recall response: Increased

## mismatched siRNA: mismatched (mixed) control sequence (AACTGCCAGATGGATGGTGAC) (SEQ ID NO: 3) (listed as DNA, chemistry not given here) [reference compound]
[4]
  inhibition of IL-12 production: no inhibitory effect
[5]
  proliferation of responding T cells / allostimulatory ability of DC in MLR: not the mismatched (mixed) control inhibited proliferation

## Poly (I:C)
[6]
  proliferative recall response to ovalbumin ([3H]thymidine): profound stimulation

## siRNA specific for IL-12p35: siRNA specific for IL-12p35 (AACCUGCUGAAGACCACAGAU) (SEQ ID NO: 1), Dharmacon (listed as RNA, chemistry not given here)
[4]
  inhibition of IL-12 production: > 30%
[5]
  proliferation of responding T cells / allostimulatory ability of DC in MLR: inhibited proliferation
